Experimental data reported in PubChem BioAssay AID248 (DTP/NCI, 2004).
Toxic doses and inconclusive results are not listed. Rule as the data show it: active = T/C of 150% or more; inactive = T/C below 125%.

Test system: L1210 leukemia ip in BDF1 mice, survival T/C
Test: NCI In Vivo Anticancer Drug Screen. Data for tumor model L1210 Leukemia (intraperitoneal) in B6D2F1 (BDF1) mice
Conditions: endpoint: mean survival time, higher = longer survival
Summary of the method: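 Mice bearing the transplanted tumor received compound or vehicle. Survival of the treated group was divided by that of the vehicle-treated control group to give the ratio.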

[1] = dose: 100.0 mg/kg/injection, schedule: Q04DX003 (ip), vehicle: Klucel (hydroxypropylcellulose) (HPC)
[2] = dose: 200.0 mg/kg/injection, schedule: Q04DX003 (ip), vehicle: Klucel (hydroxypropylcellulose) (HPC)
[3] = dose: 25.0 mg/kg/injection, schedule: Q01DX009 (ip), vehicle: saline
[4] = dose: 50.0 mg/kg/injection, schedule: Q01DX009 (ip), vehicle: saline
[5] = dose: 100.0 mg/kg/injection, schedule: Q01DX009 (ip), vehicle: saline
[6] = dose: 100.0 mg/kg/injection, schedule: Q04DX003 (ip), vehicle: saline
[7] = dose: 200.0 mg/kg/injection, schedule: Q01DX009 (ip), vehicle: saline
[8] = dose: 200.0 mg/kg/injection, schedule: Q04DX003 (ip), vehicle: saline
[9] = dose: 100.0 mg/kg/injection, schedule: Q01DX009 (ip), vehicle: saline with Tween-80
[10] = dose: 200.0 mg/kg/injection, schedule: Q01DX009 (ip), vehicle: saline with Tween-80
[11] = dose: 400.0 mg/kg/injection, schedule: Q01DX009 (ip), vehicle: saline with Tween-80
[12] = dose: 400.0 mg/kg/injection, schedule: Q01DX009 (ip), vehicle: saline
[13] = dose: 400.0 mg/kg/injection, schedule: Q04DX003 (ip), vehicle: saline
[14] = dose: 100.0 mg/kg/injection, schedule: Q01DX001 (ip), vehicle: saline
[15] = dose: 200.0 mg/kg/injection, schedule: Q01DX001 (ip), vehicle: saline
[16] = dose: 400.0 mg/kg/injection, schedule: Q01DX001 (ip), vehicle: saline
[17] = dose: 100.0 mg/kg/injection, schedule: Q04DX003 (ip), vehicle: saline with Tween-80
[18] = dose: 200.0 mg/kg/injection, schedule: Q04DX003 (ip), vehicle: saline with Tween-80
[19] = dose: 400.0 mg/kg/injection, schedule: Q04DX003 (ip), vehicle: saline with Tween-80
[20] = dose: 400.0 mg/kg/injection, schedule: Q04DX003 (ip), vehicle: Klucel (hydroxypropylcellulose) (HPC)

Measured: T/C

COc1cc(C)c(Cc2cnc(N)nc2N)cc1OC
inactive: [1] 97 % of control | [2] 89 % of control

COB(OC)C1CCCC1
inactive: dose: 100.0 mg/kg/injection, schedule: Q01DX001 (ip), vehicle: Klucel (hydroxypropylcellulose) (HPC) 92 % of control | dose: 200.0 mg/kg/injection, schedule: Q01DX001 (ip), vehicle: Klucel (hydroxypropylcellulose) (HPC) 95 % of control

CCCCNP(=O)(OCC)OCC
inactive: dose: 12.5 mg/kg/injection, schedule: Q01DX009 (ip), vehicle: saline 91 % of control | dose: 12.5 mg/kg/injection, schedule: Q04DX003 (ip), vehicle: saline 101 % of control | [3] 104 % of control | dose: 25.0 mg/kg/injection, schedule: Q04DX003 (ip), vehicle: saline 113 % of control | [4] 104 % of control | dose: 50.0 mg/kg/injection, schedule: Q04DX003 (ip), vehicle: saline 101 % of control | [5] 109 % of control | [6] 101 % of control | [7] 96 % of control | [8] 101 % of control

CN(C)c1ccc(/C=C2/CCCC/C2=N/O)cc1
inactive: [9] 98 % of control | [10] 92 % of control | [11] 88 % of control

O=C(O)C1C2CCCCC21 (stereo not drawn)
inactive: [5] 97 % of control | [6] 102 % of control | [7] 97 % of control | [8] 103 % of control | [12] 90 % of control | [13] 94 % of control

CCCCC(=O)N/N=C/c1cc(I)cc(I)c1O
inactive: [14] 87 % of control | [15] 89 % of control | [16] 87 % of control

C(=N\n1cnnc1)/c1ccccc1/C=N/n1cnnc1
inactive: [9] 116 % of control | [17] 103 % of control | [10] 96 % of control | [18] 100 % of control | [11] 89 % of control | [19] 89 % of control

COCCCNP(=O)(OC(C)C)OC(C)C
inactive: dose: 100.0 mg/kg/injection, schedule: Q01DX001 (ip), vehicle: acetone 109 % of control | dose: 100.0 mg/kg/injection, schedule: Q04DX003 (ip), vehicle: acetone 97 % of control | dose: 200.0 mg/kg/injection, schedule: Q01DX001 (ip), vehicle: acetone 98 % of control | dose: 200.0 mg/kg/injection, schedule: Q04DX003 (ip), vehicle: acetone 95 % of control | dose: 400.0 mg/kg/injection, schedule: Q01DX001 (ip), vehicle: acetone 110 % of control | dose: 400.0 mg/kg/injection, schedule: Q04DX003 (ip), vehicle: acetone 95 % of control

COc1ccccc1P(c1ccccc1OC)c1ccccc1OC
inactive: [5] 95 % of control | [6] 113 % of control | [7] 92 % of control | [8] 102 % of control | [12] 98 % of control | [13] 101 % of control

CC(C)=C(Cl)c1c(C)cc(C)c(CC(N)=O)c1C
inactive: dose: 100.0 mg/kg/injection, schedule: Q01DX009 (ip), vehicle: Klucel (hydroxypropylcellulose) (HPC) 98 % of control | [1] 93 % of control | dose: 200.0 mg/kg/injection, schedule: Q01DX009 (ip), vehicle: Klucel (hydroxypropylcellulose) (HPC) 105 % of control | [2] 98 % of control | dose: 400.0 mg/kg/injection, schedule: Q01DX009 (ip), vehicle: Klucel (hydroxypropylcellulose) (HPC) 96 % of control | [20] 98 % of control

C/C=N\N=C(N)N
inactive: dose: 15.0 mg/kg/injection, schedule: Q01DX Z (ip), vehicle: saline 91 % of control | dose: 30.0 mg/kg/injection, schedule: Q01DX Z (ip), vehicle: saline 97 % of control | dose: 60.0 mg/kg/injection, schedule: Q01DX Z (ip), vehicle: saline 100 % of control | dose: 120.0 mg/kg/injection, schedule: Q01DX Z (ip), vehicle: saline 94 % of control | dose: 120.0 mg/kg/injection, schedule: Q01DX Z (oral), vehicle: other 95 % of control | dose: 240.0 mg/kg/injection, schedule: Q01DX Z (oral), vehicle: other 97 % of control | dose: 480.0 mg/kg/injection, schedule: Q01DX Z (oral), vehicle: other 102 % of control | dose: 960.0 mg/kg/injection, schedule: Q01DX Z (oral), vehicle: other 122 % of control

c1ccc2c(c1)cc1ncc3cccc4ccc2c1c43
inactive: [17] 88 % of control | [18] 102 % of control | [19] 88 % of control

Oc1ccccc1/C=N\Nc1ccccc1
inactive: [6] 100 % of control | [8] 95 % of control | [13] 103 % of control

CC1C(c2ccccc2)N1P(I)(c1ccccc1)(c1ccccc1)c1ccccc1 (stereo not drawn)
inactive: dose: 15.0 mg/kg/injection, schedule: Q01DX001 (ip), vehicle: carboxymethylcellulose (CMC) 116 % of control

O=C(Nc1ccc2ccccc2c1)c1ccccc1
inactive: dose: 100.0 mg/kg/injection, schedule: Q01DX009 (ip), vehicle: saline sonified 104 % of control | [1] 97 % of control | dose: 200.0 mg/kg/injection, schedule: Q01DX009 (ip), vehicle: saline sonified 96 % of control | [2] 93 % of control | dose: 400.0 mg/kg/injection, schedule: Q01DX009 (ip), vehicle: saline sonified 93 % of control | [20] 92 % of control

CNCc1cccc2ccccc12
inactive: dose: 75.0 mg/kg/injection, schedule: Q01DX001 (ip), vehicle: carboxymethylcellulose (CMC) 101 % of control | dose: 150.0 mg/kg/injection, schedule: Q01DX001 (ip), vehicle: carboxymethylcellulose (CMC) 101 % of control | dose: 300.0 mg/kg/injection, schedule: Q01DX001 (ip), vehicle: carboxymethylcellulose (CMC) 107 % of control

Nc1ccc(Cl)cc1-c1nc2ccccc2[nH]1
inactive: [17] 91 % of control | [18] 95 % of control | [19] 91 % of control

CCCCC1=NCCc2c1cc1c([nH]c3ccccc31)c2C
inactive: [6] 96 % of control | [8] 95 % of control

N#CC(c1ccc(Cl)cc1)c1ccccn1 (stereo not drawn)
inactive: dose: 75.0 mg/kg/injection, schedule: Q04DX003 (ip), vehicle: other 96 % of control | dose: 150.0 mg/kg/injection, schedule: Q04DX003 (ip), vehicle: other 96 % of control | dose: 300.0 mg/kg/injection, schedule: Q04DX003 (ip), vehicle: other 94 % of control

NCC(=O)c1ccc(-c2ccccc2)cc1
inactive: [14] 97 % of control | [6] 90 % of control | [15] 92 % of control | [8] 98 % of control | [16] 97 % of control

COC(=O)C1=C(O)CN(C)C1=O
inactive: dose: 12.5 mg/kg/injection, schedule: Q01DX001 (ip), vehicle: saline 98 % of control | dose: 25.0 mg/kg/injection, schedule: Q01DX001 (ip), vehicle: saline 93 % of control | [3] 101 % of control | dose: 50.0 mg/kg/injection, schedule: Q01DX001 (ip), vehicle: saline 91 % of control | [4] 103 % of control | [14] 86 % of control | [5] 96 % of control | dose: 150.0 mg/kg/injection, schedule: Q01DX009 (ip), vehicle: saline 94 % of control

O=C(O)C(O)C(O)C(=O)O (stereo not drawn)
inactive: [5] 106 % of control | [7] 104 % of control | [12] 102 % of control
